Data on three compounds can be found in BindingDB's records for doi:10.1021/jm960873x (University of California, 1997).

What is called IC50 is the point on the concentration scale where inhibition reaches its midpoint. Read a low IC50 as greater potency in that assay.

The nature of assay [1]: Observed inhibition activity of the compounds against protein phosphatases 1 (PP1).
The nature of assay [2]: Inhibition activity against protein phosphatase 1 (PP1), activity taken from literature.
Assay [3] can be described thus: Observed inhibition activity against protein phosphatase 1 (PP1).

In the case of `COC[C@@H]([C@H](O)[C@H](O)C(=O)N[C@H](C)C[C@H](C)c1nc(/C=C/CC2O[C@]3(CC(O)C2C)OC([C@H](C[C@H](O)[C@H](C)[C@H](O)[C@H](C)/C=C(C)/C(C)=C/C=C/C(C)=C\C#N)OC)[C@H](OP(=O)(O)O)C3(C)C)co1)N(C)C` (some centres undefined) [Calyculin C], in assay [1], it took 1.5 nM to reach half-maximal inhibition (IC50).
In assay [1], `CO[C@H]([C@H](O)CC(=O)[C@@H](C)[C@@H](O)CC[C@@H](C)[C@@H]1O[C@]2(CC[C@@H](C)[C@H](CC[C@H](C)C(C)=O)O2)CC[C@@H]1C)[C@H](OC(=O)C[C@@H](O)C1=C(C)C(=O)OC1=O)C(C)C` [TAUTOMYCIN] had an IC50 of 0.67 nM.
In the case of `C/C=C1/C(=O)N[C@@H](C(=O)O)[C@H](C)C(=O)N[C@@H](CCCNC(=N)N)C(=O)N[C@@H](/C=C/C(C)=C/[C@H](C)[C@H](Cc2ccccc2)OC)[C@H](C)C(=O)N[C@@H](C(=O)O)CCC(=O)N1C` [(5R,6S,9S,12S,13S,16R)-2-Eth-(Z)-ylidene-9-(3-guanidino-propyl)-12-((1E,3E)-(5S,6S)-6-methoxy-3,5-dimethyl-7-phenyl-hepta-1,3-dienyl)-1,6,13-trimethyl-3,7,10,14,19-pentaoxo-1,4,8,11,15pentaaza-cyclononadecane-5,16-dicarboxylic acid], the IC50 in assay [2] was found to be 3 nM; in assay [3], 0.42 nM.
